Values after ≈ are worked out from the molar mass of the structure shown.
Legend:
Type in all cases: functional
[1] = test system: Trichophyton mentagrophytes; test: Antifungal activity against Trichophyton mentagrophytes ATCC 9972 by micro-broth dilution method
[2] = test system: Nannizzia gypsea; test: Antifungal activity against Microsporum gypseum C115 by microbroth dilution method
[3] = test system: Aspergillus niger; test: Antifungal activity against Aspergillus niger ATCC 9029 by micro-broth dilution method
[4] = test system: Candida tropicalis; test: Antifungal activity against Candida tropicalis C131 by micro-broth dilution method
[5] = test system: Saccharomyces cerevisiae; test: Antifungal activity against Saccharomyces cerevisiae ATCC 9763 by microbroth dilution method
[6] = test system: Aspergillus fumigatus; test: Antifungal activity against Aspergillus fumigatus ATCC 26934 by micro-broth dilution method
[7] = test system: Cryptococcus neoformans; test: Antifungal activity against Cryptococcus neoformans ATCC 32264 by microbroth dilution method
[8] = test system: Candida albicans; test: Antifungal activity against Candida albicans ATCC 10231 by micro-broth dilution method
[9] = test system: Trichophyton rubrum; test: Antifungal activity against Trichophyton rubrum C113 by microbroth dilution method
[10] = test system: Aspergillus flavus; test: Antifungal activity against Aspergillus flavus ATCC 9170 by micro-broth dilution method

MIC [1]	MIC [2]	MIC [3]	MIC [4]	MIC [5]	MIC [6]	MIC [7]	MIC [8]	MIC [9]	MIC [10]	SMILES
25 µg/mL (≈ 117 µM)	25 µg/mL (≈ 117 µM)	> 250 µg/mL	> 250 µg/mL	> 250 µg/mL	> 250 µg/mL	> 250 µg/mL	> 250 µg/mL	25 µg/mL (≈ 117 µM)	> 250 µg/mL	COc1ccc(CNc2ccccc2)cc1
> 250 µg/mL	> 250 µg/mL	> 250 µg/mL	> 250 µg/mL	> 250 µg/mL	> 250 µg/mL	> 250 µg/mL	> 250 µg/mL	> 250 µg/mL	> 250 µg/mL	C=CCC(Nc1ccc(C)cc1)c1ccco1 (stereo not given)
100 µg/mL (≈ 471 µM)	100 µg/mL (≈ 471 µM)	12.5 µg/mL (≈ 58.9 µM)	50 µg/mL (≈ 236 µM)	100 µg/mL (≈ 471 µM)	25 µg/mL (≈ 118 µM)	100 µg/mL (≈ 471 µM)	50 µg/mL (≈ 236 µM)	100 µg/mL (≈ 471 µM)	25 µg/mL (≈ 118 µM)	Cc1ccc(NCc2cccc(N)c2)cc1
250 µg/mL (≈ 959 µM)	> 250 µg/mL	> 250 µg/mL	> 250 µg/mL	> 250 µg/mL	> 250 µg/mL	> 250 µg/mL	> 250 µg/mL	250 µg/mL (≈ 959 µM)	> 250 µg/mL	C=CCC(Nc1ccc(Cl)cc1)c1cccn1C (stereo not given)
50 µg/mL (≈ 236 µM)	50 µg/mL (≈ 236 µM)	100 µg/mL (≈ 471 µM)	200 µg/mL (≈ 942 µM)	> 250 µg/mL	100 µg/mL (≈ 471 µM)	50 µg/mL (≈ 236 µM)	> 250 µg/mL	50 µg/mL (≈ 236 µM)	100 µg/mL (≈ 471 µM)	Cc1cc(C)cc(NCc2ccccn2)c1
125 µg/mL (≈ 615 µM)	250 µg/mL (≈ 1230 µM)	250 µg/mL (≈ 1230 µM)	> 250 µg/mL	> 250 µg/mL	250 µg/mL (≈ 1230 µM)	250 µg/mL (≈ 1230 µM)	> 250 µg/mL	125 µg/mL (≈ 615 µM)	250 µg/mL (≈ 1230 µM)	Cc1ccc(NCc2ccsc2)cc1
6.25 µg/mL (≈ 25.7 µM)	50 µg/mL (≈ 205 µM)	> 250 µg/mL	> 250 µg/mL	> 250 µg/mL	> 250 µg/mL	> 250 µg/mL	> 250 µg/mL	12.5 µg/mL (≈ 51.4 µM)	> 250 µg/mL	C=CCC(Nc1ccc(C)cc1)c1cccs1 (stereo not given)
25 µg/mL (≈ 118 µM)	25 µg/mL (≈ 118 µM)	100 µg/mL (≈ 471 µM)	250 µg/mL (≈ 1180 µM)	250 µg/mL (≈ 1180 µM)	100 µg/mL (≈ 471 µM)	50 µg/mL (≈ 236 µM)	250 µg/mL (≈ 1180 µM)	25 µg/mL (≈ 118 µM)	200 µg/mL (≈ 942 µM)	Cc1cc(C)cc(NCc2ccncc2)c1
25 µg/mL (≈ 132 µM)	25 µg/mL (≈ 132 µM)	> 250 µg/mL	> 250 µg/mL	> 250 µg/mL	> 250 µg/mL	> 250 µg/mL	> 250 µg/mL	12.5 µg/mL (≈ 66 µM)	> 250 µg/mL	c1ccc(NCc2cccs2)cc1
250 µg/mL (≈ 1180 µM)	250 µg/mL (≈ 1180 µM)	> 250 µg/mL	> 250 µg/mL	> 250 µg/mL	> 250 µg/mL	> 250 µg/mL	> 250 µg/mL	250 µg/mL (≈ 1180 µM)	> 250 µg/mL	Cn1cccc1C(C#N)Nc1ccccc1 (stereo not given)
12.5 µg/mL (≈ 49.6 µM)	6.25 µg/mL (≈ 24.8 µM)	62.5 µg/mL (≈ 248 µM)	75 µg/mL (≈ 297 µM)	50 µg/mL (≈ 198 µM)	50 µg/mL (≈ 198 µM)	50 µg/mL (≈ 198 µM)	62.5 µg/mL (≈ 248 µM)	3.12 µg/mL (≈ 12.4 µM)	50 µg/mL (≈ 198 µM)	Brc1ccc(NCc2ccco2)cc1
62.5 µg/mL (≈ 301 µM)	125 µg/mL (≈ 602 µM)	62.5 µg/mL (≈ 301 µM)	125 µg/mL (≈ 602 µM)	125 µg/mL (≈ 602 µM)	62.5 µg/mL (≈ 301 µM)	62.5 µg/mL (≈ 301 µM)	125 µg/mL (≈ 602 µM)	62.5 µg/mL (≈ 301 µM)	62.5 µg/mL (≈ 301 µM)	Clc1ccc(NCc2ccoc2)cc1
62.5 µg/mL (≈ 252 µM)	62.5 µg/mL (≈ 252 µM)	> 250 µg/mL	> 250 µg/mL	> 250 µg/mL	> 250 µg/mL	125 µg/mL (≈ 505 µM)	> 250 µg/mL	62.5 µg/mL (≈ 252 µM)	> 250 µg/mL	C=CCC(Nc1ccc(Cl)cc1)c1ccoc1 (stereo not given)
> 250 µg/mL	> 250 µg/mL	> 250 µg/mL	> 250 µg/mL	> 250 µg/mL	> 250 µg/mL	250 µg/mL (≈ 948 µM)	> 250 µg/mL	> 250 µg/mL	> 250 µg/mL	C=CCC(Nc1ccc(Cl)cc1)c1ccsc1 (stereo not given)
> 250 µg/mL	> 250 µg/mL	> 250 µg/mL	> 250 µg/mL	> 250 µg/mL	> 250 µg/mL	> 250 µg/mL	> 250 µg/mL	> 250 µg/mL	> 250 µg/mL	C=CCC(Nc1ccc(Cl)c(Cl)c1)c1ccco1 (stereo not given)
50 µg/mL (≈ 267 µM)	100 µg/mL (≈ 534 µM)	250 µg/mL (≈ 1340 µM)	250 µg/mL (≈ 1340 µM)	> 250 µg/mL	125 µg/mL (≈ 668 µM)	100 µg/mL (≈ 534 µM)	> 250 µg/mL	25 µg/mL (≈ 134 µM)	250 µg/mL (≈ 1340 µM)	Cc1ccc(NCc2ccco2)cc1

Second part, the compound before the results:

SMILES	MIC [1]	MIC [2]	MIC [3]	MIC [4]	MIC [5]	MIC [6]	MIC [7]	MIC [8]	MIC [9]	MIC [10]
C=CCC(Nc1ccccc1)c1ccncc1 (stereo not given)	62.5 µg/mL (≈ 279 µM)	125 µg/mL (≈ 557 µM)	250 µg/mL (≈ 1110 µM)	250 µg/mL (≈ 1110 µM)	125 µg/mL (≈ 557 µM)	250 µg/mL (≈ 1110 µM)	250 µg/mL (≈ 1110 µM)	250 µg/mL (≈ 1110 µM)	250 µg/mL (≈ 1110 µM)	250 µg/mL (≈ 1110 µM)
C=CCC(Nc1ccccc1)c1ccsc1 (stereo not given)	250 µg/mL (≈ 1090 µM)	125 µg/mL (≈ 545 µM)	> 250 µg/mL	> 250 µg/mL	> 250 µg/mL	> 250 µg/mL	250 µg/mL (≈ 1090 µM)	> 250 µg/mL	250 µg/mL (≈ 1090 µM)	> 250 µg/mL
Cc1ccc(NC(C#N)c2ccsc2)cc1 (stereo not given)	125 µg/mL (≈ 547 µM)	250 µg/mL (≈ 1090 µM)	> 250 µg/mL	> 250 µg/mL	> 250 µg/mL	> 250 µg/mL	125 µg/mL (≈ 547 µM)	> 250 µg/mL	125 µg/mL (≈ 547 µM)	> 250 µg/mL
CN(C)c1ccc(CNc2ccccc2)cc1	> 250 µg/mL	> 250 µg/mL	> 250 µg/mL	> 250 µg/mL	> 250 µg/mL	200 µg/mL (≈ 884 µM)	> 250 µg/mL	> 250 µg/mL	> 250 µg/mL	> 250 µg/mL
c1ccc(NCc2cccnc2)cc1	125 µg/mL (≈ 678 µM)	125 µg/mL (≈ 678 µM)	250 µg/mL (≈ 1360 µM)	250 µg/mL (≈ 1360 µM)	> 250 µg/mL	250 µg/mL (≈ 1360 µM)	> 250 µg/mL	250 µg/mL (≈ 1360 µM)	125 µg/mL (≈ 678 µM)	250 µg/mL (≈ 1360 µM)
Cc1cc(C)cc(NCc2cccnc2)c1	25 µg/mL (≈ 118 µM)	25 µg/mL (≈ 118 µM)	200 µg/mL (≈ 942 µM)	> 250 µg/mL	200 µg/mL (≈ 942 µM)	100 µg/mL (≈ 471 µM)	100 µg/mL (≈ 471 µM)	> 250 µg/mL	25 µg/mL (≈ 118 µM)	200 µg/mL (≈ 942 µM)
CN(C/C=C/C#CC(C)(C)C)Cc1cccc2ccccc12 [TERBINAFINE]	0.04 µg/mL (≈ 0.137 µM)	0.04 µg/mL (≈ 0.137 µM)							0.01 µg/mL (≈ 0.0343 µM)	
C[C@@H]1[C@H](O)[C@@H](C)/C=C/C=C/C=C/C=C/C=C/C=C/C=C/[C@H](O[C@@H]2O[C@H](C)[C@@H](O)[C@H](N)[C@@H]2O)C[C@@H]2O[C@](O)(C[C@@H](O)C[C@@H](O)[C@H](O)CC[C@@H](O)C[C@@H](O)CC(=O)O[C@H]1C)C[C@H](O)[C@H]2C(=O)O [AMPHOTERICIN B]			0.5 µg/mL (≈ 0.541 µM)	0.5 µg/mL (≈ 0.541 µM)	0.5 µg/mL (≈ 0.541 µM)	0.5 µg/mL (≈ 0.541 µM)	0.25 µg/mL (≈ 0.271 µM)	1 µg/mL (≈ 1.08 µM)		0.5 µg/mL (≈ 0.541 µM)
C=CCC(Nc1ccc(OC)cc1)c1ccncc1 (stereo not given)	125 µg/mL (≈ 491 µM)	62.5 µg/mL (≈ 246 µM)	> 250 µg/mL	> 250 µg/mL	> 250 µg/mL	> 250 µg/mL	> 250 µg/mL	> 250 µg/mL	125 µg/mL (≈ 491 µM)	> 250 µg/mL
O=[N+]([O-])c1cccc(NCc2ccccn2)c1	50 µg/mL (≈ 218 µM)	50 µg/mL (≈ 218 µM)	200 µg/mL (≈ 872 µM)	100 µg/mL (≈ 436 µM)	100 µg/mL (≈ 436 µM)	200 µg/mL (≈ 872 µM)	50 µg/mL (≈ 218 µM)	100 µg/mL (≈ 436 µM)	50 µg/mL (≈ 218 µM)	100 µg/mL (≈ 436 µM)

Source: ChEMBL document CHEMBL1143950, “Antifungal and cytotoxic activities of some N-substituted aniline derivatives bearing a hetaryl fragment” (Bioorg Med Chem, 2008)
